Legend:
[1] = system: E. coli strains DH5a and JM109; experiment: Growth of pGEMR / pGEMR294 transformants on plates with varying concentrations of spectinomycin; format: cell-based; details: 37° C.
Method: E. coli strains DH5a and JM109 were conventionally transformed with pGP1-2, and were subsequently transformed by pGEMR (control) and pGEMR294 (which contains the 16S sequence) as described above in Example 1D. Transformants were selected on LB agar containing ampicillin (200 ug/mL) and kanamycin ([…]). These transformants were subsequently examined for their ability to grow in the presence of varying concentrations of spectinomycin (5, 10, 15, 20 and 40 ug/mL). Spectinomycin resistant transformants were recovered at 37° C.
By contrast, transformants of pGEMR294 grew in the presence of the drug up to […]. Plasmids isolated from the transformants and used to retransform each strain, confirmed that resistance was indeed plasmid dependent.

E. coli strain DC2 = experiment: Selection of spectinomycin-resistant transformants from a random rRNA fragment library; format: cell-based
From the text: Random rDNA fragments were generated by restriction endonuclease digestion of the entire rrnB operon encoding all three rDNAs (16S, 23S and 5S) and the spacer regions using a range and combination of one or more enzymes (including either AluI, HaeIII or DpnI or a double digestion with AluI/DpnI or HaeIII/DpnI) in which recognition sites occurred frequently within the target sequence. The enzymes AluI, HaeIII and DpnI release fragments that can be cloned in either orientation in to the SmaI site on pGEMR.
The fragments were ligated into the SmaI site in pGEMR and used to transform the respective strains. The diversity of RNA fragments within the library was determined by in vitro transcription of radiolabeled transcripts using the RIBOMAXÔ system (Promega), resolution by denaturing gel electrophoresis, and autoradiography according to standard procedures [Sambrook et al, cited above]. Briefly described, to establish that the pool of transformants harbored pGEMR encoding a mixed population of rRNA fragments, the plasmids were isolated, linearized with HindIII and transcribed in vitro with T7 RNA polymerase in the presence of ^32PaUTP. The products were resolved by denaturing gel electrophoresis and visualized by autoradiography. The library consisted of a large number of transcripts, varying in size with an average of 200-500 nucleotides in length. […]

[2] = system: 30S subunits and 3' domain 16S rRNA sub-particle; details: 30S subunits and reconstituted 3' domain particle (nucleotides 923-1542 with eight r-proteins); cited from earlier work

CN[C@@H]1[C@H](O)[C@H](NC)[C@H]2O[C@@]3(O)C(=O)C[C@@H](C)O[C@H]3O[C@@H]2[C@H]1O [spectinomycin]
spectinomycin concentration up to which transformants grew ([1]; transformants of pGEMR294 (16S rRNA fragment nucleotides 972-1266, helix 34) with pGP1-2): up to 20 mg/mL | spectinomycin concentration above which transformants did not survive on plates ([1]; transformants of pGEMR (control) with pGP1-2): above 5 mg/mL | spectinomycin concentration up to which resistant transformants developed on plates (E. coli strain DC2; DC2 (pGP1-2) transformed with rRNA fragment library (16S/23S hybrid fragment), after 48 hours incubation at 37° C.): up to 40 ug/mL | level of spectinomycin resistance, transformants expressing 16/23S RNA versus wild type helix 34 fragment (E. coli strain DC2; comparison of transformants expressing 16/23S hybrid RNA with those encoding wild type helix 34 fragment): higher level of spectinomycin resistance | binding affinity to 30S subunit versus 3' domain sub-particle (dependence of protection on drug concentration) [2]: binds with similar affinity to each particle
